Test results: the NIST ThermoML archive (doi:10.1021/je060217u)

Columns and labels:
[1] = 298.15 K; 101 kPa; Liquid
[2] = xn = mol fraction of the nth substance listed; conditions: 298.15 K, 101 kPa, Liquid

CCCCO [butan-1-ol]
Conditions	mass density [kg/m3]
[1]	806.04

CCCCO [butan-1-ol] + COC(=O)OC
Conditions	mass density [kg/m3]
[2], x1 = 1	806.04

COC(=O)OC [dimethyl carbonate]
Conditions	mass density [kg/m3]
[1]	1063.19

COC(=O)OC [dimethyl carbonate] + CCCCO
[2]
Conditions	mass density [kg/m3]
x2 = 0	1063.19
x2 = 0.0502	1047.97
x2 = 0.0999	1033.24
x2 = 0.1499	1018.51
x2 = 0.2003	1004.53
x2 = 0.2501	990.53
x2 = 0.2998	976.9
x2 = 0.3499	963.39
x2 = 0.4	950.13
x2 = 0.4501	937.02
x2 = 0.5	924.2
x2 = 0.55	911.58
x2 = 0.6	899.07
x2 = 0.65	886.83
x2 = 0.7	874.68
x2 = 0.7499	862.98
x2 = 0.7999	851.07
x2 = 0.85	839.53
x2 = 0.8999	828.11
x2 = 0.9499	817

COC(=O)OC [dimethyl carbonate] + CCCO
[2]
Conditions	mass density [kg/m3]
x2 = 0	1063.19
x2 = 0.0501	1050.5
x2 = 0.1002	1037.73
x2 = 0.1498	1025.44
x2 = 0.1999	1012.47
x2 = 0.2502	999.85
x2 = 0.2999	987.13
x2 = 0.3498	974.39
x2 = 0.3998	961.45
x2 = 0.4499	948.47
x2 = 0.5001	935.29
x2 = 0.55	922.19
x2 = 0.6	908.92
x2 = 0.6501	895.57
x2 = 0.7001	882.18
x2 = 0.75	868.68
x2 = 0.8002	855.15
x2 = 0.8501	841.36
x2 = 0.9002	827.59
x2 = 0.9502	813.83

COC(=O)OC [dimethyl carbonate] + CCO
[2]
Conditions	mass density [kg/m3]
x2 = 0	1063.19
x2 = 0.0501	1052.75
x2 = 0.1	1042.29
x2 = 0.1501	1031.54
x2 = 0.1998	1020.64
x2 = 0.2498	1009.34
x2 = 0.2998	997.73
x2 = 0.3501	985.68
x2 = 0.4002	973.28
x2 = 0.4499	960.59
x2 = 0.5	947.4
x2 = 0.55	933.74
x2 = 0.6001	919.57
x2 = 0.65	905
x2 = 0.6999	889.89
x2 = 0.7499	874.1
x2 = 0.8001	857.71
x2 = 0.8498	840.7
x2 = 0.8998	822.98
x2 = 0.95	804.45

CCO [ethanol]
Conditions	mass density [kg/m3]
[1]	785.2

CCO [ethanol] + COC(=O)OC
Conditions	mass density [kg/m3]
[2], x1 = 1	785.2

CCCO [propan-1-ol]
Conditions	mass density [kg/m3]
[1]	799.75

CCCO [propan-1-ol] + COC(=O)OC
Conditions	mass density [kg/m3]
[2], x1 = 1	799.75
